ChEMBL document CHEMBL4507304, “Data for DCP probe TP-021” (2021)

Key:
[1] = tested on: Phosphatidylinositol 4,5-bisphosphate 3-kinase catalytic subunit alpha isoform (Homo sapiens), P42336 [E545A]; conditions: Compound concentration 1000.0 nM
[2] = tested on: Phosphatidylinositol 4,5-bisphosphate 3-kinase catalytic subunit alpha isoform (Homo sapiens), P42336 [H1047L]; conditions: Compound concentration 1000.0 nM
[3] = molecular target: Mitogen-activated protein kinase kinase kinase 3 (Homo sapiens) (UniProt Q99759); conditions: Compound concentration 1000.0 nM
[4] = molecular target: RAC-gamma serine/threonine-protein kinase (Homo sapiens) (UniProt Q9Y243); conditions: Compound concentration 1000.0 nM
[5] = molecular target: Serine/threonine-protein kinase Sgk1 (Homo sapiens) (UniProt O00141); conditions: Compound concentration 1000.0 nM
[6] = molecular target: Sodium-dependent noradrenaline transporter (Homo sapiens) (UniProt P23975); conditions: Compound concentration 10.0 uM
[7] = tested on: Receptor-type tyrosine-protein kinase FLT3 (Homo sapiens), P36888 [N841I]; conditions: Compound concentration 1000.0 nM
[8] = molecular target: Serine/threonine-protein kinase Nek9 (Homo sapiens) (UniProt Q8TD19); conditions: Compound concentration 1000.0 nM
[9] = tested on: Receptor-type tyrosine-protein kinase FLT3 (Homo sapiens), P36888 [K663Q]; conditions: Compound concentration 1000.0 nM
[10] = molecular target: Dual specificity protein kinase CLK3 (Homo sapiens) (UniProt P49761); conditions: Compound concentration 1000.0 nM
[11] = tested on: Phosphatidylinositol 4,5-bisphosphate 3-kinase catalytic subunit alpha isoform (Homo sapiens), P42336 [H1047Y]; conditions: Compound concentration 1000.0 nM
[12] = molecular target: D(1A) dopamine receptor (Homo sapiens) (UniProt P21728); conditions: Compound concentration 10.0 uM
[13] = molecular target: Mitogen-activated protein kinase 3 (Homo sapiens) (UniProt P27361); conditions: Compound concentration 1000.0 nM
[14] = tested on: ALK tyrosine kinase receptor (Homo sapiens), Q9UM73 [L1196M]; conditions: Compound concentration 1000.0 nM
[15] = molecular target: Cyclin-dependent kinase 17 (Homo sapiens) (UniProt Q00537); conditions: Compound concentration 1000.0 nM
[16] = molecular target: Hormonally up-regulated neu tumor-associated kinase (Homo sapiens) (UniProt P57058); conditions: Compound concentration 1000.0 nM
[17] = molecular target: Ribosomal protein S6 kinase alpha-2 (Homo sapiens) (UniProt Q15349); conditions: Compound concentration 1000.0 nM
[18] = molecular target: Serine/threonine-protein kinase 16 (Homo sapiens) (UniProt O75716); conditions: Compound concentration 1000.0 nM
[19] = molecular target: Dual specificity mitogen-activated protein kinase kinase 4 (Homo sapiens) (UniProt P45985); conditions: Compound concentration 1000.0 nM
[20] = molecular target: Alpha-1D adrenergic receptor (Homo sapiens) (UniProt P25100); conditions: Compound concentration 10.0 uM
[21] = molecular target: Protein kinase C theta type (Homo sapiens) (UniProt Q04759); conditions: Compound concentration 1000.0 nM
[22] = molecular target: Serine/threonine-protein kinase RIO1 (Homo sapiens) (UniProt Q9BRS2); conditions: Compound concentration 1000.0 nM
[23] = molecular target: Protein kinase C epsilon type (Homo sapiens) (UniProt Q02156); conditions: Compound concentration 1000.0 nM
[24] = tested on: ALK tyrosine kinase receptor (Homo sapiens), Q9UM73 [C1156Y]; conditions: Compound concentration 1000.0 nM
[25] = molecular target: Phosphatidylinositol 5-phosphate 4-kinase type-2 beta (Homo sapiens) (UniProt P78356); conditions: Compound concentration 1000.0 nM
[26] = molecular target: MAP kinase-interacting serine/threonine-protein kinase 2 (Homo sapiens) (UniProt Q9HBH9); conditions: Compound concentration 1000.0 nM
[27] = molecular target: Platelet-derived growth factor receptor alpha (Homo sapiens) (UniProt P16234); conditions: Compound concentration 1000.0 nM
[28] = molecular target: G protein-coupled receptor kinase 3 (Homo sapiens) (UniProt P35626); conditions: Compound concentration 1000.0 nM
[29] = molecular target: STE20-like serine/threonine-protein kinase (Homo sapiens) (UniProt Q9H2G2); conditions: Compound concentration 1000.0 nM
[30] = molecular target: Mitogen-activated protein kinase 7 (Homo sapiens) (UniProt Q13164); conditions: Compound concentration 1000.0 nM
[31] = molecular target: Myosin-IIIb (Homo sapiens) (UniProt Q8WXR4); conditions: Compound concentration 1000.0 nM
[32] = molecular target: Serine/threonine-protein kinase 32A (Homo sapiens) (UniProt Q8WU08); conditions: Compound concentration 1000.0 nM
[33] = molecular target: D(3) dopamine receptor (Homo sapiens) (UniProt P35462); conditions: Compound concentration 10.0 uM
[34] = molecular target: Beta-2 adrenergic receptor (Homo sapiens) (UniProt P07550); conditions: Compound concentration 10.0 uM
[35] = molecular target: Serine/threonine-protein kinase PknB (Mycobacterium tuberculosis) (UniProt P9WI81); conditions: Compound concentration 1000.0 nM
[36] = molecular target: Activin receptor type-2B (Homo sapiens) (UniProt Q13705); conditions: Compound concentration 1000.0 nM
[37] = molecular target: Ribosomal protein S6 kinase alpha-3 (Homo sapiens) (UniProt P51812); conditions: Compound concentration 1000.0 nM
[38] = molecular target: Interleukin-1 receptor-associated kinase 3 (Homo sapiens) (UniProt Q9Y616); conditions: Compound concentration 1000.0 nM
[39] = tested on: Epidermal growth factor receptor (Homo sapiens), P00533 [T790M]; conditions: Compound concentration 1000.0 nM
[40] = molecular target: Dual specificity mitogen-activated protein kinase kinase 2 (Homo sapiens) (UniProt P36507); conditions: Compound concentration 1000.0 nM
[41] = tested on: Hepatocyte growth factor receptor (Homo sapiens), P08581 [Y1235D]; conditions: Compound concentration 1000.0 nM
[42] = molecular target: Mitogen-activated protein kinase kinase kinase kinase 2 (Homo sapiens) (UniProt Q12851); conditions: Compound concentration 1000.0 nM
[43] = molecular target: Serine/threonine-protein kinase tousled-like 2 (Homo sapiens) (UniProt Q86UE8); conditions: Compound concentration 1000.0 nM
[44] = molecular target: Phosphatidylinositol 4-phosphate 3-kinase C2 domain-containing subunit beta (Homo sapiens) (UniProt O00750); conditions: Compound concentration 1000.0 nM
[45] = molecular target: Serine/threonine-protein kinase ULK3 (Homo sapiens) (UniProt Q6PHR2); conditions: Compound concentration 1000.0 nM

Sequence of Serine/threonine-protein kinase PknB (Mycobacterium tuberculosis) (P9WI81 whole entry): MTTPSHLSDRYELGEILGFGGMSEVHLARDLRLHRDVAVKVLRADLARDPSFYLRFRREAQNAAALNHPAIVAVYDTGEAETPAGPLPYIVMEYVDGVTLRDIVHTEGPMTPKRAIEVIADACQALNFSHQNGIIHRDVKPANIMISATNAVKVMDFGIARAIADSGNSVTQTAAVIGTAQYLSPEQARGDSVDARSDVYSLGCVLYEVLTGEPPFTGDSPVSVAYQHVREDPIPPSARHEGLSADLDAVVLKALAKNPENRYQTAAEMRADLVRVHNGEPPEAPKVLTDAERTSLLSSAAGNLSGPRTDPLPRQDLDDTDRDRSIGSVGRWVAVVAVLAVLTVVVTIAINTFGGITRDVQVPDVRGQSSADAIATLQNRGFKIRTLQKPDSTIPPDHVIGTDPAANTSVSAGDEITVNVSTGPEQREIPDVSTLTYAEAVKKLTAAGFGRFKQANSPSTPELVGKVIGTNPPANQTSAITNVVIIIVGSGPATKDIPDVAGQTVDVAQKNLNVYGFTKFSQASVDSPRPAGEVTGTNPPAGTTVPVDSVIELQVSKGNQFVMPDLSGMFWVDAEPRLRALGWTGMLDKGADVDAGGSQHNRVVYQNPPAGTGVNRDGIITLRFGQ
Sequence of Ribosomal protein S6 kinase alpha-3 (Homo sapiens) (P51812 whole entry): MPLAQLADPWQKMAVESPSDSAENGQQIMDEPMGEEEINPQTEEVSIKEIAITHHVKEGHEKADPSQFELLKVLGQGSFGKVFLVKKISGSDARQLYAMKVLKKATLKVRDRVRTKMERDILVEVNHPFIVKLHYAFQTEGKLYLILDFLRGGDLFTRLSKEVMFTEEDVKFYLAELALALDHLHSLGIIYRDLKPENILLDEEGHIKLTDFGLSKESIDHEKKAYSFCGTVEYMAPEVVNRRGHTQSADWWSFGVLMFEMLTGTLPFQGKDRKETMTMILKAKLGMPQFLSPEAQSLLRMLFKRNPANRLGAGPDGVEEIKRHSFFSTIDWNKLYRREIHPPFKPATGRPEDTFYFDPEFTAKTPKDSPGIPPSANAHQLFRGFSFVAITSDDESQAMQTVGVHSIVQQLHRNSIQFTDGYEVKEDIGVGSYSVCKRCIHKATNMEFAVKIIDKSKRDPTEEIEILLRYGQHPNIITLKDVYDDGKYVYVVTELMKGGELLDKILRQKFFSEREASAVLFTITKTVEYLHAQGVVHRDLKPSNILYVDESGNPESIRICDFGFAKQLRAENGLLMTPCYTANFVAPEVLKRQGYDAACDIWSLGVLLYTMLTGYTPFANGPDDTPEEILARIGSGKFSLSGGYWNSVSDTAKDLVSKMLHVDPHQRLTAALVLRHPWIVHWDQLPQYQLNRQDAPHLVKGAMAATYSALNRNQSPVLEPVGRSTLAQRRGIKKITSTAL
Sequence of Alpha-1D adrenergic receptor (Homo sapiens) (P25100 whole entry): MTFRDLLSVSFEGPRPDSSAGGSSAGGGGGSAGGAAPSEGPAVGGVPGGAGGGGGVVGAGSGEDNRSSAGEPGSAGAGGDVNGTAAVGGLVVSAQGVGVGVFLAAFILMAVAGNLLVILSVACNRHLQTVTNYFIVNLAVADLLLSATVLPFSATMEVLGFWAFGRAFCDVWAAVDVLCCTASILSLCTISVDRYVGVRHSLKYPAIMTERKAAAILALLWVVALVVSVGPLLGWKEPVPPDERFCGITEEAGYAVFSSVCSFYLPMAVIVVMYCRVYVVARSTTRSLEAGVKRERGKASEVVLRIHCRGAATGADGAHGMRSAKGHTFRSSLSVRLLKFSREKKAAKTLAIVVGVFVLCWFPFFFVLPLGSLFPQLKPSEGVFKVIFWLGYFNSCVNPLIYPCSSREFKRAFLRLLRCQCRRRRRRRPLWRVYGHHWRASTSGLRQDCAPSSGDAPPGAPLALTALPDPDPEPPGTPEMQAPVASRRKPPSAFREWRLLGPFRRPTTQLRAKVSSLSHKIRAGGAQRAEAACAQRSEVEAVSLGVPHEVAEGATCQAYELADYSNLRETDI
Sequence of Mitogen-activated protein kinase 7 (Homo sapiens) (Q13164 2-816 limits assumed): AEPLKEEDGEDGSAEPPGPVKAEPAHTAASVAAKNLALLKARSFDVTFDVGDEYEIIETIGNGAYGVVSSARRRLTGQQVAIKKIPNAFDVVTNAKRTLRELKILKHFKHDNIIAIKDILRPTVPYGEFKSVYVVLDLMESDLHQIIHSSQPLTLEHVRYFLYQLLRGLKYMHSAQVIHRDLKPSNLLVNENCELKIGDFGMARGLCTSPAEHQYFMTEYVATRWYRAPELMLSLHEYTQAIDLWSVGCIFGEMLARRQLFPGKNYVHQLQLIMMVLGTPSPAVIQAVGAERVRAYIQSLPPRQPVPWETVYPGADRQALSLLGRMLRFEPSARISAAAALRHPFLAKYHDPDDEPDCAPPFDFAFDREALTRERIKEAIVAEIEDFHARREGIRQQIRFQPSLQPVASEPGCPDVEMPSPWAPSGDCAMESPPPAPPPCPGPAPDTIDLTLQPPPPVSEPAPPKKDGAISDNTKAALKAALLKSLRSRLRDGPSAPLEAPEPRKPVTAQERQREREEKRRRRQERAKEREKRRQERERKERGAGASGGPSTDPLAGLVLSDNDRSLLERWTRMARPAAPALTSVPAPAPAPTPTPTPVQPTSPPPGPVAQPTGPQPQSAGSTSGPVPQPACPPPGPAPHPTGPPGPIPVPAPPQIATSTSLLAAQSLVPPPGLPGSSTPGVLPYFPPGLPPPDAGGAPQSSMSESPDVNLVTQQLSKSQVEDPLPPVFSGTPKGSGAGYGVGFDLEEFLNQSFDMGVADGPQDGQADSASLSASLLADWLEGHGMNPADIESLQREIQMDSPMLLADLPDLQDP
Sequence of D(3) dopamine receptor (Homo sapiens) (P35462 whole entry): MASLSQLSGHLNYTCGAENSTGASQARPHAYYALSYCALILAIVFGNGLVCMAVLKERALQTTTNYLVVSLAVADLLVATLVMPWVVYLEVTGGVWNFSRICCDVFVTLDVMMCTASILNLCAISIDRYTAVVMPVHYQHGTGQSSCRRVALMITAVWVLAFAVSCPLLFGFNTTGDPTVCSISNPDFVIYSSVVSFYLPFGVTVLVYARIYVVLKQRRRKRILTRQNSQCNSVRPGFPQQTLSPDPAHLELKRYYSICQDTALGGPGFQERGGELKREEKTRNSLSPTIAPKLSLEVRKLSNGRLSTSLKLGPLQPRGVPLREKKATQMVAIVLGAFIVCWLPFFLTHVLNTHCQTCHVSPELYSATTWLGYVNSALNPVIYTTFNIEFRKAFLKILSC
Sequence of Serine/threonine-protein kinase tousled-like 2 (Homo sapiens) (Q86UE8 whole entry, looked up, the tested form may be a part): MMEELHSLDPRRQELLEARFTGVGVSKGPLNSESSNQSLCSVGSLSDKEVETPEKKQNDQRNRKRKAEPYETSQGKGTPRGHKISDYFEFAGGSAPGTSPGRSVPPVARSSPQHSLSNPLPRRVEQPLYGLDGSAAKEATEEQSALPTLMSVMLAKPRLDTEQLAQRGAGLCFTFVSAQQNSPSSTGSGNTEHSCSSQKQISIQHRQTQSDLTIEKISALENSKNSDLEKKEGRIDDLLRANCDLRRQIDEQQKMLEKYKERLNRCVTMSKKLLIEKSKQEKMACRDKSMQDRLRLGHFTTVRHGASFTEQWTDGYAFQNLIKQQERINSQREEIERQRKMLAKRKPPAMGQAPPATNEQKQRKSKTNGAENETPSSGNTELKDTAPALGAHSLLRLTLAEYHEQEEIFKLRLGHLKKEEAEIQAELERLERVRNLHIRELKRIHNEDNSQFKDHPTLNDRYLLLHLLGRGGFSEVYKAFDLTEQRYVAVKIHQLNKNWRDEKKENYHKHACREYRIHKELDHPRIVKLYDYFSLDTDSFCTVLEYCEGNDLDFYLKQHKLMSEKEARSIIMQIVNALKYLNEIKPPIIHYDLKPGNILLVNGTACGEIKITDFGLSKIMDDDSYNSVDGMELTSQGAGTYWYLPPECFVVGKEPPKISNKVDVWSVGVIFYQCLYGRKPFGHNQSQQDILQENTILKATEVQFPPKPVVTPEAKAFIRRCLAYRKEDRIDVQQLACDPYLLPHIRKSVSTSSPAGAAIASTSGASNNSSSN
Sequence of Phosphatidylinositol 4,5-bisphosphate 3-kinase catalytic subunit alpha isoform (Homo sapiens), P42336 [H1047L] (P42336 whole entry H1047L, canonical isoform): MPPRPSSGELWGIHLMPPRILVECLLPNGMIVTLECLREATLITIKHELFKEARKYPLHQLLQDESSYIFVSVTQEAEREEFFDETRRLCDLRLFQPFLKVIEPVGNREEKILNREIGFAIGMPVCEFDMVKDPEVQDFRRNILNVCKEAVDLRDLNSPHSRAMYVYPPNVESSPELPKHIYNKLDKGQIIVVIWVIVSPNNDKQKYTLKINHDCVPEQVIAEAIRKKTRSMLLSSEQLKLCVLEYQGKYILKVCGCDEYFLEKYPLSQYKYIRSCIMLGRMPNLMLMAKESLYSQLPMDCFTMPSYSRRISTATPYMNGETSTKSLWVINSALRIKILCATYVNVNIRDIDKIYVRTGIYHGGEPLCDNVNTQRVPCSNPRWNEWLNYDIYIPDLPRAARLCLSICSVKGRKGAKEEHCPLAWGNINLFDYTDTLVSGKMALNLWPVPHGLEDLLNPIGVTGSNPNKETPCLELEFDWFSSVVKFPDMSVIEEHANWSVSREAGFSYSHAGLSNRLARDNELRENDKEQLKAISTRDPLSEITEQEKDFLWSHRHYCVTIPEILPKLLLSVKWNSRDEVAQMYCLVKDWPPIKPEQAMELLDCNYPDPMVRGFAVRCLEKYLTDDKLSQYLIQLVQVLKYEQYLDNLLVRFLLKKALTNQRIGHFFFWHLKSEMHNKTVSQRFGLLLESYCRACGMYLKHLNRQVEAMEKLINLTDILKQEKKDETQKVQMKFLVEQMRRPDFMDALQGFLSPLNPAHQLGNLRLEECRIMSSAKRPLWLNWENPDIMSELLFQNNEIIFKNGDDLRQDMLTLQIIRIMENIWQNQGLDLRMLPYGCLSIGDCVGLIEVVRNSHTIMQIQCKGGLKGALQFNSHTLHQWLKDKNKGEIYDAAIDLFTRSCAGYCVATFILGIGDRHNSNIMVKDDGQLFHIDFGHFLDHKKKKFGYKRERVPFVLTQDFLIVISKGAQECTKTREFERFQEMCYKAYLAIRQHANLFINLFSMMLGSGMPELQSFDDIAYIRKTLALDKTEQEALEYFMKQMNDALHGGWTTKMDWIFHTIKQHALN

N#Cc1ccc(Nc2ccc3[nH]c(=O)[nH]c3c2)c(Cl)c1
inactive: residual activity [1] 100% | residual activity [2] 78% | residual activity [3] 84% | residual activity [4] 69% | residual activity [5] 100% | inhibition [6] -2.68% | residual activity [7] 77% | residual activity [8] 96% | residual activity [9] 92% | residual activity [10] 96% | residual activity [11] 100% | inhibition [12] -7.86% | residual activity [13] 95% | residual activity [14] 100% | residual activity [15] 100% | residual activity [16] 98% | residual activity [17] 100% | residual activity [18] 91% | residual activity [19] 100% | inhibition [20] -5.71% | residual activity [21] 90% | residual activity [22] 100% | residual activity [23] 100% | residual activity [24] 100% | residual activity [25] 74% | residual activity [26] 100% | residual activity [27] 100% | residual activity [28] 100% | residual activity [29] 100% | residual activity [30] 100% | residual activity [31] 100% | residual activity [32] 81% | inhibition [33] 3.81% | inhibition [34] -0.51% | residual activity [35] 100% | residual activity [36] 81% | residual activity [37] 100% | residual activity [38] 94% | residual activity [39] 91% | residual activity [40] 93% | residual activity [41] 95% | residual activity [42] 100% | residual activity [43] 96% | residual activity [44] 99% | residual activity [45] 100%

O=C1CCc2cc(Nc3cc(OC4CCOCC4)c([N+](=O)[O-])cc3Cl)ccc2N1
inactive: residual activity [1] 100% | residual activity [2] 78% | residual activity [3] 95% | residual activity [4] 94% | residual activity [5] 100% | inhibition [6] 0.76% | residual activity [7] 100% | residual activity [8] 80% | residual activity [9] 100% | residual activity [10] 100% | residual activity [11] 100% | inhibition [12] 7.4% | residual activity [13] 78% | residual activity [14] 100% | residual activity [15] 91% | residual activity [16] 93% | residual activity [17] 92% | residual activity [18] 93% | residual activity [19] 100% | inhibition [20] 3.49% | residual activity [21] 92% | residual activity [22] 100% | residual activity [23] 93% | residual activity [24] 91% | residual activity [25] 100% | residual activity [26] 98% | residual activity [27] 97% | residual activity [28] 100% | residual activity [29] 100% | residual activity [30] 100% | residual activity [31] 97% | residual activity [32] 90% | inhibition [33] 35.4% | inhibition [34] -1.73% | residual activity [35] 94% | residual activity [36] 89% | residual activity [37] 100% | residual activity [38] 98% | residual activity [39] 85% | residual activity [40] 73% | residual activity [41] 100% | residual activity [42] 95% | residual activity [43] 81% | residual activity [44] 89% | residual activity [45] 100%
